Assays:
[1] = molecular target: T1, Purine nucleoside phosphorylase (Homo sapiens, UniProt P00491); test: Inhibition of human purine nucleoside phosphorylase by xanthine-oxidase coupled assay
T1 sequence (P00491 whole entry): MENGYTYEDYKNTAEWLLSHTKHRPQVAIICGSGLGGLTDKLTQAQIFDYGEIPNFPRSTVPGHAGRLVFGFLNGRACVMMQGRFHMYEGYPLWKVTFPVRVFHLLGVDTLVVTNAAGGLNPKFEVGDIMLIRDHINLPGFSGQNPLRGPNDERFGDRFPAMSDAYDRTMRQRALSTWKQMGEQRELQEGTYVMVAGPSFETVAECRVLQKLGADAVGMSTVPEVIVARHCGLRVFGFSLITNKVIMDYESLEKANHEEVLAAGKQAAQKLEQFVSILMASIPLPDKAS

[2] = molecular target: T1, Purine nucleoside phosphorylase; test: Inhibition of human purine nucleoside phosphorylase assessed as slow onset inhibition constant by xanthine-oxidase coupled assay

Compound: O=c1[nH]cnc2c(CN3C[C@H](O)[C@@](F)(CO)C3)c[nH]c12 [Immucillins, 1]
- Ki [1]: 0.066 nM
- Ki [2]: 0.5 nM
